Three molecules from ChEMBL document CHEMBL5512645, “A novel antimicrobial peptide with broad-spectrum and exceptional stability derived from the natural peptide Brevicidine” (Eur J Med Chem, 2024) can be followed below.

≈ marks a conversion by molar mass, not a printed value. Calls of active or inactive are those of the source. Bridge positions count the residues as written; N and C are the ends. Square brackets hold non-standard residues; d marks the D form. Peptide text beside a SMILES is read from it. * marks the point of attachment. ξ: configuration not given here. Hexanoyl(4ξ-Me) = CCC(C)CCC(=O)*; dOrn = NCCC[C@@H](N)C(=O)O; Orn = NCCC[C@H](N)C(=O)O

Series [1] concerns Staphylococcus aureus. Nature of the series: Induction of morphological changes in Staphylococcus aureus ATCC 25923 assessed as increase in volume of swelling at 2 times MIC measured after 2 hrs by SEM based analysis. The series is classed as functional, organism-based.
Series [2] is described as follows: Toxicity in male BALB/c mouse assessed as hemorrhage in kidney at 46.88 mg/kg, ip administered as single dose by H and E staining based analysis. The class given is organism-based. Particulars: in vivo.
A short description of series [3]: Toxicity in male BALB/c mouse assessed as inflammatory cell infiltration in kidney at 46.88 mg/kg, ip administered as single dose by H and E staining based analysis. The series is classed as organism-based. Particulars: in vivo.
Series [4] has as its system Staphylococcus aureus. Description: Antibacterial activity against Staphylococcus aureus ATCC 25923 pretreated with 2.5% mouse serum followed by compound addition and measured after 6 hrs by broth microdilution method (reference value: 8 microM). The series is classed as functional. (In general: In broth dilution the organism is exposed to a series of concentrations in liquid medium.)

In series [5] the test system is Staphylococcus aureus. Nature of the series: Antibacterial activity against Staphylococcus aureus ATCC 25923 pretreated with 10% mouse serum followed by compound addition and measured after 1 hr by broth microdilution method (reference value: 8 microM). The series is classed as functional.
The subject of series [6] is Cell membrane. Description: Induction of cytoplasmic membrane depolarization in Pseudomonas aeruginosa ATCC 27853 assessed as increase in fluorescence intensity measured upto 12 min by DiSC3-5 dye based fluorescence method. The series is classed as cell membranes.
The subject of series [7] is Staphylococcus aureus. Nature of the series: Antibacterial activity against Staphylococcus aureus ATCC 25923 pretreated with 10% mouse serum followed by compound addition and measured after 6 hrs by broth microdilution method (reference value: 8 microM). The series is classed as functional.
Series [8] relates to Staphylococcus aureus. Description: Antibiofilm activity against Staphylococcus aureus ATCC 25923 assessed as biofilm eradication at 1/2 to 4 times MIC measured after 24 hrs by crystal violet staining based analysis. The class given is functional, organism-based.
Series [9] deals with Staphylococcus aureus. Description: Antibacterial activity against Staphylococcus aureus ATCC 25923 pretreated with 20% mouse serum followed by compound addition and measured after 6 hrs by broth microdilution method (reference value: 8 microM). The class given is functional.
The nature of series [10]: Toxicity in male BALB/c mouse assessed as survival rate at 29.2 mg/kg, ip measured after 7 days relative to control. Conditions: in vivo, time 7 day. The class given is organism-based.
Series [11] is described as follows: Toxicity in male BALB/c mouse assessed as lethal dose administered as ip measured after 7 days. The class given is organism-based. Conditions: male, BALB/c, in vivo, time 7 day.
A short description of series [12]: Toxicity in male BALB/c mouse assessed as survival rate at 62.6 mg/kg, ip measured after 6 days relative to control. The series is classed as organism-based. Particulars: in vivo, time 6 day.
Series [13] deals with Pseudomonas aeruginosa. Nature of the series: Bactericidal activity against Pseudomonas aeruginosa ATCC 27853 assessed as assessed as eradication of bacterial cells at 1/2 to 1 times MIC measured after 0.5 hr by time killing analysis relative to control. The series is classed as functional.
Series [14] relates to Staphylococcus aureus. Description: Antibacterial activity against Staphylococcus aureus ATCC 25923 pretreated with 5% mouse serum followed by compound addition and measured after 6 hrs by broth microdilution method (reference value: 8 microM). The class given is functional.
The subject of series [15] is Staphylococcus aureus. Nature of the series: Antibacterial activity against Staphylococcus aureus ATCC 25923 pretreated with Na-cl followed by compound addition and measured after 2 hrs by broth microdilution method (reference value: 8 microM). The series is classed as functional.
Series [16] relates to Staphylococcus aureus. Description: Antibacterial activity against Staphylococcus aureus ATCC 25923 pretreated with FeCl3 followed by compound addition and measured after 2 hrs by broth microdilution method (reference value: 8 microM). The series is classed as functional.
Series [17] can be described thus: Toxicity in male BALB/c mouse assessed as hemorrhage in liver at 46.88 mg/kg, ip administered as single dose by H and E staining based analysis. The series is classed as organism-based. Particulars: in vivo.
The nature of series [18]: Toxicity in male BALB/c mouse assessed as survival rate at 42.6 mg/kg, ip measured after 6 days relative to control. Conditions: in vivo, time 6 day. The class given is organism-based.
For series [19], the system named is Staphylococcus aureus. Description: Antibacterial activity against Staphylococcus aureus ATCC 25923 assessed as fold increase in MIC pretreated with 2.5 to 20% mouse serum followed by compound addition and measured after 6 hr by broth microdilution method. The series is classed as functional.
Series [20] has as its system Staphylococcus aureus. Nature of the series: Antibacterial activity against Staphylococcus aureus ATCC 25923 pretreated with 5% mouse serum followed by compound addition and measured after 6 hrs by broth microdilution method (reference value: 64 microM). The class given is functional.
Series [21] concerns Cell membrane. Description: Induction of outer membrane permeabilization in Pseudomonas aeruginosa ATCC 27853 assessed increase in fluorescence intensity at 1 MIC measured upto 12 mins by fluorescence based NPN uptake assay. The series is classed as cell membranes.
Series [22] deals with Staphylococcus aureus. Nature of the series: Antibacterial activity against Staphylococcus aureus ATCC 25923 pretreated with 5% mouse serum followed by compound addition and measured after 1 hr by broth microdilution method (reference value: 64 microM). The series is classed as functional.
For series [23], the system named is Cell membrane. Nature of the series: Induction of cytoplasmic membrane depolarization in Pseudomonas aeruginosa ATCC 27853 assessed as increase in fluorescence intensity at 2 to 4 times MIC measured upto 12 min by DiSC3-5 dye based fluorescence method. The series is classed as cell membranes.
Series [24] relates to Staphylococcus aureus. Nature of the series: Antibacterial activity against Staphylococcus aureus ATCC 25923 pretreated with Na-cl followed by compound addition and measured after 2 hrs by broth microdilution method (reference value: 64 microM). The class given is functional.
Series [25] concerns Staphylococcus aureus. Nature of the series: Antibacterial activity against Staphylococcus aureus ATCC 25923 pretreated with 20% mouse serum followed by compound addition and measured after 6 hrs by broth microdilution method (reference value: 64 microM). The class given is functional.
The test system of series [26] is Pseudomonas aeruginosa. Nature of the series: Antibacterial activity against Pseudomonas aeruginosa ATCC 27853 assessed as fold increase in MIC pretreated with 2.5 to 20% mouse serum followed by compound addition and measured after 6 hr by broth microdilution method. The series is classed as functional.
The test system of series [27] is Staphylococcus aureus. Nature of the series: Antibacterial activity against Staphylococcus aureus ATCC 25923 pretreated with Zncl2 followed by compound addition and measured after 2 hrs by broth microdilution method (reference value: 64 microM). The series is classed as functional.
For series [28], the system named is Staphylococcus aureus. Description: Antibacterial activity against Staphylococcus aureus ATCC 25923 pretreated with 20% mouse serum followed by compound addition and measured after 1 hr by broth microdilution method (reference value: 64 microM). The class given is functional.
The subject of series [29] is Staphylococcus aureus. Description: Antibacterial activity against Staphylococcus aureus ATCC 25923 pretreated with Na-cl followed by compound addition and measured after 2 hrs by broth microdilution method (reference value: 16 microM). The series is classed as functional, organism-based.
For series [30], the system named is Staphylococcus aureus. Description: Antibacterial activity against Staphylococcus aureus ATCC 25923 pretreated with 20% mouse serum followed by compound addition and measured after 1 hr by broth microdilution method (reference value: 16 microM). The series is classed as functional, organism-based.
For series [31], the system named is Staphylococcus aureus. Nature of the series: Antibacterial activity against Staphylococcus aureus ATCC 25923 pretreated with Kcl followed by compound addition and measured after 2 hrs by broth microdilution method (reference value: 16 microM). The class given is functional, organism-based.
For series [32], the system named is Cell membrane. Description: Induction of outer membrane permeabilization in Pseudomonas aeruginosa ATCC 27853 assessed increase in fluorescence intensity at 1/2 to 4 times MIC by fluorescence based NPN uptake assay. The class given is cell membranes. Conditions: time <= 12.0 min, TDE = time-dependent effect.
The test system of series [33] is Staphylococcus aureus. Nature of the series: Antibacterial activity against Staphylococcus aureus ATCC 25923 pretreated with 20% mouse serum followed by compound addition and measured after 6 hrs by broth microdilution method (reference value: 16 microM). The series is classed as functional, organism-based.
Series [34] deals with Cell membrane. Description: Induction of outer membrane permeabilization in Pseudomonas aeruginosa ATCC 27853 assessed increase in fluorescence intensity measured after 12 mins by fluorescence based NPN uptake assay. The series is classed as cell membranes.
In series [35] the test system is Cell membrane. Nature of the series: Induction of cytoplasmic membrane depolarization in Pseudomonas aeruginosa ATCC 27853 assessed as increase in fluorescence intensity at 4 times MIC measured upto 12 min by DiSC3-5 dye based fluorescence method. The class given is cell membranes.
Series [36] deals with Staphylococcus aureus. Description: Antibacterial activity against Staphylococcus aureus ATCC 25923 pretreated with 10% mouse serum followed by compound addition and measured after 1 hr by broth microdilution method (reference value: 16 microM). The series is classed as functional, organism-based.

Turning to `CCCCCCCCCC(=O)N[C@H](CCCN)C(=O)N[C@H](Cc1ccc(O)cc1)C(=O)N[C@H](Cc1c[nH]c2ccccc12)C(=O)N[C@H](CCCN)C(=O)N[C@@H](CCCN)C(=O)NCC(=O)N[C@H](CCCN)C(=O)N[C@@H](Cc1c[nH]c2ccccc12)C(=O)N[C@H](C(=O)N[C@H](C(=O)NCC(=O)N[C@@H](CO)C(=O)O)[C@@H](C)CC)[C@@H](C)O`, the result with Staphylococcus aureus [1] and in the series on Staphylococcus aureus [8] was Active. For the same molecule, the Activity entry is “Toxic” in series [2]; “Toxic” in [3]; “Dose-Dependent Effect” in the series with Cell membrane [6]; 100% with Pseudomonas aeruginosa [13]; “Toxic” in series [17]. Moreover, the MIC with Staphylococcus aureus [4] was 16 µM (≈ 25.3 µg/mL); with Staphylococcus aureus [5], 32 µM (≈ 50.6 µg/mL); with Staphylococcus aureus [7], 32 µM (≈ 50.6 µg/mL); with Staphylococcus aureus [9] it was over 128 µM; with Staphylococcus aureus [14], 16 µM (≈ 25.3 µg/mL); in the series on Staphylococcus aureus [15] it was 16 µM (≈ 25.3 µg/mL). Besides, the MIC with Staphylococcus aureus [16] stood at 8 µM (≈ 12.6 µg/mL). Further, in series [10], the survival at 168 h was 100%. Besides, the LD50 at 168 h in series [11] was 46.9 mg/kg. Besides, the values for the survival at 144 h in [12] and in series [18] were 12.5% and 50%, respectively.
Turning to `CCC(C)CCC(=O)N[C@H](CC(N)=O)C(=O)N[C@H](Cc1ccc(O)cc1)C(=O)N[C@H](Cc1c[nH]c2ccccc12)C(=O)N[C@H](CCCN)C(=O)N[C@@H](CCCN)C(=O)NCC(=O)N[C@H](CCCN)C(=O)N[C@@H](Cc1c[nH]c2ccccc12)C(=O)N[C@@H]1C(=O)N[C@@H]([C@@H](C)CC)C(=O)NCC(=O)N[C@@H](CO)C(=O)O[C@@H]1C` (stereo partly specified) ({Hexanoyl(4ξ-Me)}-[dN][dY][dW][dOrn][Orn]G[dOrn]WTIGS; ester 9-C), the “fold change (FC)” value in the series on Staphylococcus aureus [19] came to 2; in the series on Pseudomonas aeruginosa [26], 4. The MIC in the series with Staphylococcus aureus [20] is 128 µM (≈ 195 µg/mL); with Staphylococcus aureus [22], 64 µM (≈ 97.3 µg/mL); in the series on Staphylococcus aureus [24], 128 µM (≈ 195 µg/mL); with Staphylococcus aureus [25], 128 µM (≈ 195 µg/mL); in the series on Staphylococcus aureus [27] it was 64 µM (≈ 97.3 µg/mL); in the series with Staphylococcus aureus [28], 128 µM (≈ 195 µg/mL). Also, the result in the series on Cell membrane [21] and with Cell membrane [23] was Active.
Consider POLYMYXIN B, for which the MIC was 16 µM with Staphylococcus aureus [29]; 16 µM in the series with Staphylococcus aureus [30]; 8 µM in the series with Staphylococcus aureus [31]; 16 µM with Staphylococcus aureus [33]; 16 µM with Staphylococcus aureus [36]. The results for the Activity result in the series on Cell membrane [32] and in the series with Cell membrane [34] were “Tde” and “Dose-Dependent Effect”, respectively. For the same molecule, in the series with Cell membrane [35], the outcome was inactive.

As a reminder, the MIC is the smallest concentration in the dilution series that meets the test's criterion for growth inhibition. One may read the LD50 as the dose expected to kill half of the subjects tested.
